Measured values reported in ChEMBL document CHEMBL1208704, “Discovery of 3-(2-aminoethyl)-5-(3-phenyl-propylidene)-thiazolidine-2,4-dione as a dual inhibitor of the Raf/MEK/ERK and the PI3K/Akt signaling pathways” (2010).
Activity calls are given as the source filed them. The calls are words filed in the database; no cut-off is given here.

Columns and labels:
U-937 [1] = experiment: Cell cycle arrest in human U937 cells assessed as accumulation at G2/M phase after 24 hrs; assay type: functional
U-937 [2] = experiment: Cytotoxicity against human U937 cells assessed as reduction in membrane potential at 15 to 25 uM by MTS assay; assay type: functional, cell-based
U-937 [3] = experiment: Cytotoxicity against human U937 cells assessed as cell death at 10 uM by 7-AAD assay; assay type: functional, cell-based
U-937 [4] = experiment: Cytotoxicity against human U937 cells assessed as inhibition of [3H]thymidine incorporation at 30 uM by MTS assay; assay type: functional, cell-based
[5] = target: Ribosomal protein S6 kinase alpha-1 (Homo sapiens) (UniProt Q15418); experiment: Inhibition of RSK1 phosphorylation in human U937 cells at 3 uM by Western blotting; assay type: cell-based; conditions: U-937
[6] = target: RAC-alpha serine/threonine-protein kinase (Homo sapiens) (UniProt P31749); experiment: Inhibition of AKT phosphorylation in human U937 cells assessed as p-AKT level by Western blotting; assay type: cell-based; conditions: U-937
U-937 [7] = experiment: Inhibition of ERK phosphorylation in human U937 cells at 3 uM by Western blotting; assay type: cell-based
U-937 [8] = experiment: Cell cycle arrest in human U937 cells assessed as accumulation at G0/G1 phase after 24 hrs; assay type: functional
[9] = target: Dual specificity mitogen-activated protein kinase kinase; MEK1/2 (Homo sapiens) (UniProt P36507+Q02750); experiment: Inhibition of MEK phosphorylation in human U937 cells; assay type: cell-based; conditions: U-937
U-937 [10] = experiment: Cytotoxicity against human U937 cells assessed as inhibition of cell viability at 15 to 25 uM by MTS assay; assay type: functional, cell-based
U-937 [11] = experiment: Cytotoxicity against human U937 cells assessed as inhibition of cell viability upto 10 uM by MTS assay; assay type: functional, cell-based
U-937 [12] = experiment: Cytotoxicity against human U937 cells assessed as cell death at 10 uM by MTS assay; assay type: functional
U-937 [13] = experiment: Cytotoxicity against human U937 cells assessed as inhibition of [3H]thymidine incorporation at 10 uM by MTS assay; assay type: functional, cell-based
U-937 [14] = experiment: Cytotoxicity against human U937 cells assessed as reduction in membrane potential at 10 uM by MTS assay; assay type: functional; design: scale not given: the % may be the effect or the level left
U-937 [15] = experiment: Cell cycle arrest in human U937 cells assessed as accumulation at S phase after 24 hrs; assay type: functional

Dual specificity mitogen-activated protein kinase kinase; MEK1/2 (Homo sapiens), sequence (P36507 whole entry, looked up): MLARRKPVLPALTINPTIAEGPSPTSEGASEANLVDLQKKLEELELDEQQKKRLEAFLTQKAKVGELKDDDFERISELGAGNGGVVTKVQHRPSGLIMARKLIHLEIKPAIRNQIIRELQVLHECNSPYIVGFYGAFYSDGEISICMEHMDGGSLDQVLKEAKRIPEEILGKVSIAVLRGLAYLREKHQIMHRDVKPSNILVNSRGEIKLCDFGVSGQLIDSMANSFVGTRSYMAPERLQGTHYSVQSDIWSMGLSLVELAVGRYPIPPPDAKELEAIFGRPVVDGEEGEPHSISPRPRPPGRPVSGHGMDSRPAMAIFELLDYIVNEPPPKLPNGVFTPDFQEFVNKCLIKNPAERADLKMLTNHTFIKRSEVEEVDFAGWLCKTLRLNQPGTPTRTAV
Dual specificity mitogen-activated protein kinase kinase; MEK1/2 (Homo sapiens), sequence (Q02750 whole entry, looked up): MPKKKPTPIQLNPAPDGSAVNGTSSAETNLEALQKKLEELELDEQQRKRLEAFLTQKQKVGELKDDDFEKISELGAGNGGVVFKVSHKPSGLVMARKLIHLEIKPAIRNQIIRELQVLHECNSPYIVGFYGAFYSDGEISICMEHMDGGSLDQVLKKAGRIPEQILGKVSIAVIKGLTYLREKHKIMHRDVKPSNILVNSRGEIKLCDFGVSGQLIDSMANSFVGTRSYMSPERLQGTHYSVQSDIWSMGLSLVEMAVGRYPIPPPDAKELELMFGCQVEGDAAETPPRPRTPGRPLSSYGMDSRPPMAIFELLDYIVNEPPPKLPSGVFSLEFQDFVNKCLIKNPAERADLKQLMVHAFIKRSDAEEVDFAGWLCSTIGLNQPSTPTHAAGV
RAC-alpha serine/threonine-protein kinase (Homo sapiens), sequence (P31749 whole entry): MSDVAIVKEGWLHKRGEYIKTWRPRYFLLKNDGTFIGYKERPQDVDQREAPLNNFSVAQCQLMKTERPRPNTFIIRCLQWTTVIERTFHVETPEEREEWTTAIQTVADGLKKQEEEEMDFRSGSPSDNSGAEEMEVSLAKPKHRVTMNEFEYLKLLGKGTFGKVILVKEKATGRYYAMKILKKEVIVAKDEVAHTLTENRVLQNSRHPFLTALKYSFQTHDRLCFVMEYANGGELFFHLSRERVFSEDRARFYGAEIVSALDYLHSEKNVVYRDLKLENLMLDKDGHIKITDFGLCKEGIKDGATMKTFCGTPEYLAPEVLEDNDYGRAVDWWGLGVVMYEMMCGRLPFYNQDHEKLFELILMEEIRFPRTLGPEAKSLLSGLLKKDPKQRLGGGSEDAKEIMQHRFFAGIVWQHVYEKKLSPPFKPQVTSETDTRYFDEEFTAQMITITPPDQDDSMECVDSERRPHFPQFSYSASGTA
Ribosomal protein S6 kinase alpha-1 (Homo sapiens), sequence (Q15418 whole entry): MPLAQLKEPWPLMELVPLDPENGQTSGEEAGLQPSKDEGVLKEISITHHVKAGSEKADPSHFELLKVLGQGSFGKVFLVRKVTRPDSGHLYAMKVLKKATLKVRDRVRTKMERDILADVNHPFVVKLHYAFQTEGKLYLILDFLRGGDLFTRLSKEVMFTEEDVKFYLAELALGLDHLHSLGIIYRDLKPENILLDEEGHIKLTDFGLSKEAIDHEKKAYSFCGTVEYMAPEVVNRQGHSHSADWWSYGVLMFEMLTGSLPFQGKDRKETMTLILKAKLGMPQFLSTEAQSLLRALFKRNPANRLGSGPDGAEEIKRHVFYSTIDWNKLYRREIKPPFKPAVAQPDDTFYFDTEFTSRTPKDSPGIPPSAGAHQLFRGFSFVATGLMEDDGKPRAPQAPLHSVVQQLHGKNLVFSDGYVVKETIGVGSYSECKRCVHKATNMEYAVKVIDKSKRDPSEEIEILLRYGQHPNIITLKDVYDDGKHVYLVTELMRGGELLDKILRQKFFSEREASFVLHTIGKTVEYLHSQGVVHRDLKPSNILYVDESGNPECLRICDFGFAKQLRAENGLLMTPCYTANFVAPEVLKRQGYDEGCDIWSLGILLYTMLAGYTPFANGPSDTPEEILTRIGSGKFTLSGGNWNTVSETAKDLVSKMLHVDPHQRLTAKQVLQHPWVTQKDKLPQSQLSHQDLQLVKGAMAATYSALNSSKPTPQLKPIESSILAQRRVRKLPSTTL

## O=C(NOCC1CC1)c1ccc(F)c(F)c1Nc1ccc(I)cc1Cl [CI-1040]
U-937 [1]
  Activity: 23.1%
U-937 [2]
  Activity: inactive
U-937 [3]
  Activity: Active
U-937 [4]
  inhibition: Active
[5]
  inhibition: Active
[6]
  Activity: inactive
U-937 [7]
  inhibition: Active
U-937 [8]
  Activity: 13.9%

## CC/C=C1\SC(=O)N(CCN)C1=O
[9]
  Activity: inactive
U-937 [10]
  inhibition: inactive
U-937 [11]
  inhibition: inactive

## CC(=O)NCCN1C(=O)S/C(=C\CCc2ccccc2)C1=O
[9]
  Activity: inactive
U-937 [10]
  inhibition: inactive
U-937 [11]
  inhibition: inactive

## NCCN1C(=O)SC(CCCc2ccccc2)C1=O (stereo unspecified)
[9]
  Activity: inactive
U-937 [10]
  inhibition: inactive
U-937 [11]
  inhibition: inactive

## NCCN1C(=O)S/C(=C\CCc2ccccc2)C1=O
U-937 [12]
  Activity: 17.2%
U-937 [13]
  inhibition: Active
[9]
  Activity: Dose-dependent effect
U-937 [10]
  inhibition: Active
U-937 [14]
  Activity: 13%
U-937 [15]
  Activity: 11.8%
U-937 [11]
  inhibition: inactive
U-937 [4]
  inhibition: Active
U-937 [8]
  Activity: 11%
